The structures appear in SMILES notation.

The values that follow come from BindingDB's records for doi:10.1016/S1074-5521(01)00079-5 (State University of New York, 2001).

The assay deals with HIV-1 protease (Human immunodeficiency virus, UniProt O90785). As to the kind of experiment: Enzyme Inhibition Assay.
Chain of HIV-1 protease (O90785 whole entry): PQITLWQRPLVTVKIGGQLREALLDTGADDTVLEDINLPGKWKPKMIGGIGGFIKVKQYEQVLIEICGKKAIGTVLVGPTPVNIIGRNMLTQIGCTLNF
Broadly, the Ki is the dissociation constant of the complex between target and ligand, obtained from inhibition or displacement. With `O=C(NCc1ccccc1)[C@H](Cc1ccccc1)CC(O)C[C@@H](Cc1ccccc1)C(=O)NCc1ccccc1` [Carbinol, 18a], the Ki was 3.2 µM.
`O=C(NC1c2ccccc2CC1O)[C@H](Cc1ccccc1)CC(O)C[C@@H](Cc1ccccc1)C(=O)NC1c2ccccc2CC1O` (stereo partly drawn) [Carbinol, 18b] displayed a Ki of 0.0038 µM.
Take `O=C(NCc1ccccc1)[C@H](Cc1ccccc1)C[Si](O)(O)C[C@@H](Cc1ccccc1)C(=O)NCc1ccccc1` [Silanediol, 17a]: affinity was put at a Ki of 3.2 µM.
